Assay results from ChEMBL document CHEMBL5236593, “Design, synthesis and biological evaluation studies of novel anti-fibrosis agents bearing sulfoxide moiety” (2022).
The source made the active and inactive calls. The rule behind the calls is not given here.

Columns and labels:
HRMC [1] = test: Anti-fibrotic activity in human HRMC cells assessed as downregulation of CTGF mRNA expression at 1 uM pretreated with compound for 30 mins followed by TGF-beta stimulation and measured after 24 hrs by qRT-PCR analysis; format: functional, cell-based; conditions: time 24.5 hrs
LX-2 [2] = test: Anti-fibrotic activity in human LX2 cells assessed as downregulation of PAI-1 mRNA expression at 1 uM pretreated with compound for 30 mins followed by TGF-beta stimulation and measured after 24 hrs by qRT-PCR analysis; format: functional, cell-based; conditions: time 24.5 hrs
HRMC [3] = test: Anti-fibrotic activity in human HRMC cells assessed as downregulation of IL11 mRNA expression at 1 uM pretreated with compound for 30 mins followed by TGF-beta stimulation and measured after 24 hrs by qRT-PCR analysis; format: functional, cell-based; conditions: time 24.5 hrs
NHCF-V [4] = test: Anti-fibrotic activity in human NHCF-V cells assessed as downregulation of TGF-beta1 mRNA expression at 1 uM pretreated with compound for 30 mins followed by TGF-beta stimulation and measured after 24 hrs by qRT-PCR analysis; format: functional, cell-based; conditions: time 24.5 hrs
LX-2 [5] = test: Anti-fibrotic activity in human LX2 cells assessed as downregulation of COL1A1 mRNA expression at 1 uM pretreated with compound for 30 mins followed by TGF-beta stimulation and measured after 24 hrs by qRT-PCR analysis; format: functional, cell-based; conditions: time 24.5 hrs
HRMC [6] = test: Anti-fibrotic activity in human HRMC cells assessed as downregulation of COL16A1 mRNA expression at 1 uM pretreated with compound for 30 mins followed by TGF-beta stimulation and measured after 24 hrs by qRT-PCR analysis; format: functional, cell-based; conditions: time 24.5 hrs
NHCF-V [7] = test: Anti-fibrotic activity in human NHCF-V cells assessed as downregulation of ACTA2 mRNA expression at 1 uM pretreated with compound for 30 mins followed by TGF-beta stimulation and measured after 24 hrs by qRT-PCR analysis; format: functional, cell-based; conditions: time 24.5 hrs
NHCF-V [8] = test: Anti-fibrotic activity in human NHCF-V cells assessed as downregulation of PAI-1 mRNA expression at 1 uM pretreated with compound for 30 mins followed by TGF-beta stimulation and measured after 24 hrs by qRT-PCR analysis; format: functional, cell-based; conditions: time 24.5 hrs
LX-2 [9] = test: Anti-fibrotic activity in human LX2 cells assessed as downregulation of ACTA2 mRNA expression at 1 uM pretreated with compound for 30 mins followed by TGF-beta stimulation and measured after 24 hrs by qRT-PCR analysis; format: functional, cell-based; conditions: time 24.5 hrs
LX-2 [10] = test: Anti-fibrotic activity in human LX2 cells assessed as downregulation of CTGF mRNA expression at 1 uM pretreated with compound for 30 mins followed by TGF-beta stimulation and measured after 24 hrs by qRT-PCR analysis; format: functional, cell-based; conditions: time 24.5 hrs
HRMC [11] = test: Anti-fibrotic activity in human HRMC cells assessed as downregulation of COL4A1 mRNA expression at 1 uM pretreated with compound for 30 mins followed by TGF-beta stimulation and measured after 24 hrs by qRT-PCR analysis; format: functional, cell-based; conditions: time 24.5 hrs
NHCF-V [12] = test: Anti-fibrotic activity in human NHCF-V cells assessed as downregulation of CTGF mRNA expression at 1 uM pretreated with compound for 30 mins followed by TGF-beta stimulation and measured after 24 hrs by qRT-PCR analysis; format: functional, cell-based; conditions: time 24.5 hrs
Mus musculus [13] = test: (§1) Anti-fibrotic activity against CCl4-induced liver fibrosis C57BL/6 mouse model assessed as reduction in serum ALT level at 200 mg/kg, ig administered for 27 days with first injection started at 24 hrs post-first CCl4 challenge and measured at 48 hrs post-last administration; format: functional, organism-based; conditions: time 29.0 day
Mus musculus [14] = test: (§2) Anti-fibrotic activity against BLM-induced pulmonary fibrosis C57BL/6 mouse model assessed as reduction in lung fibrosis at 200 mg/kg administered via gavage for 13 days with first injection started at 24 hrs post-first BLM challenge and measured after 24 hrs by Ashcroft score based analysis; format: functional, organism-based; conditions: time 14.0 day
Mus musculus [15] = test: Anti-fibrotic activity against CCl4-induced liver fibrosis C57BL/6 mouse model assessed as reduction in serum IBIL level at 200 mg/kg, ig administered for 27 days with first injection started at 24 hrs post-first CCl4 challenge and measured at 48 hrs post-last administration; format: functional, organism-based; conditions: time 29.0 day
Mus musculus [16] = test: as §1, with “liver bridging fibrosis” for “serum ALT level”, “administration by Masson's trichrome staining based analysis” for “administration”; format: functional, organism-based; conditions: time 29.0 day
Mus musculus [17] = test: Anti-fibrotic activity against CCl4-induced liver fibrosis C57BL/6 mouse model assessed as reduction in serum TBIL level at 200 mg/kg, ig administered for 27 days with first injection started at 24 hrs post-first CCl4 challenge and measured at 48 hrs post-last administration; format: functional, organism-based; conditions: time 29.0 day
Mus musculus [18] = test: as §2, with “lung inflammation” for “lung fibrosis”, “by H and E staining” for “by Ashcroft score”, “based microscopic” for “based”; format: functional, organism-based; conditions: time 14.0 day
Mus musculus [19] = test: Anti-fibrotic activity against BLM-induced pulmonary fibrosis C57BL/6 mouse model assessed as reduction in hydroxyproline content in lungs at 200 mg/kg administered via gavage for 13 days with first injection started at 24 hrs post-first BLM challenge and measured after 24 hrs; format: functional, organism-based; conditions: time 14.0 day
Mus musculus [20] = test: as §2, with “lung inflammation” for “lung fibrosis”, “by Masson's trichrome staining” for “by Ashcroft score”; format: functional, organism-based; conditions: time 14.0 day
Mus musculus [21] = test: Anti-fibrotic activity against CCl4-induced liver fibrosis C57BL/6 mouse model assessed as reduction in serum hydroxyproline content at 200 mg/kg, ig administered for 27 days with first injection started at 24 hrs post-first CCl4 challenge and measured at 48 hrs post-last administration; format: functional, organism-based; conditions: time 29.0 day
[22] = Anti-fibrotic activity in human NHCF-V cells assessed as downregulation of ACTA2 mRNA expression at 0.1 to 1 uM pretreated with compound for 30 mins followed by TGF-beta stimulation and measured after 24 hrs by qRT-PCR analysis; format: functional; conditions: dose 0.1-1 µM, time 24.5 hrs
LX-2 [23] = test: Anti-fibrotic activity in human LX2 cells assessed as downregulation of ACTA2 mRNA expression at 0.1 to 1 uM pretreated with compound for 30 mins followed by TGF-beta stimulation and measured after 24 hrs by qRT-PCR analysis; format: functional, cell-based; conditions: dose 0.1-1 µM, time 24.5 hrs
LX-2 [24] = test: Anti-fibrotic activity in human LX2 cells assessed as downregulation of CTGF mRNA expression at 0.1 to 1 uM pretreated with compound for 30 mins followed by TGF-beta stimulation and measured after 24 hrs by qRT-PCR analysis; format: functional, cell-based; conditions: dose 0.1-1 µM, time 24.5 hrs
[25] = Anti-fibrotic activity in human NHCF-V cells assessed as downregulation of PAI-1 mRNA expression at 0.1 to 1 uM pretreated with compound for 30 mins followed by TGF-beta stimulation and measured after 24 hrs by qRT-PCR analysis; format: functional; conditions: dose 0.1-1 µM, time 24.5 hrs
Mus musculus [26] = test: (§3) Anti-fibrotic activity against BLM-induced pulmonary fibrosis C57BL/6 mouse model assessed as reduction in area of lung fibrosis at 200 mg/kg administered via gavage for 13 days with first injection started at 24 hrs post-first BLM challenge and measured after 24 hrs by H and E staining based microscopic analysis; format: functional, organism-based; conditions: time 14.0 day
Mus musculus [27] = test: as §3, with “Masson's trichrome” for “H and E”, “based” for “based microscopic”; format: functional, organism-based; conditions: time 14.0 day
[28] = Anti-fibrotic activity in human NHCF-V cells assessed as downregulation of CTGF mRNA expression at 0.1 to 1 uM pretreated with compound for 30 mins followed by TGF-beta stimulation and measured after 24 hrs by qRT-PCR analysis; format: functional; conditions: dose 0.1-1 µM, time 24.5 hrs
Mus musculus [29] = test: as §1, with “liver bridging fibrosis” for “serum ALT level”, “250” for “200”, “administration by Masson's trichrome staining based analysis” for “administration”; format: functional, organism-based; conditions: time 29.0 day

NC(=O)C[S+]([O-])Cc1ccccc1 (centres undefined)
Activity (HRMC [1]): inactive
Activity (LX-2 [2]): inactive
Activity (HRMC [3]): inactive
Activity (NHCF-V [4]): inactive
Activity (LX-2 [5]): inactive
Activity (HRMC [6]): inactive
Activity (NHCF-V [7]): inactive
Activity (NHCF-V [8]): inactive
Activity (LX-2 [9]): inactive
Activity (LX-2 [10]): inactive
Activity (HRMC [11]): inactive
Activity (NHCF-V [12]): inactive

CC1(C[S+]([O-])c2ccccc2)COC1 (centres undefined)
Activity (Mus musculus [13]): Active
Activity (HRMC [1]): inactive
Activity (LX-2 [2]): inactive
Activity (HRMC [3]): inactive
Activity (NHCF-V [4]): inactive
Activity (Mus musculus [14]): Active
Activity (LX-2 [5]): inactive
Activity (Mus musculus [15]): Active
Activity (Mus musculus [16]): inactive
Activity (Mus musculus [17]): Active
Activity (HRMC [6]): inactive
Activity (NHCF-V [7]): inactive
Activity (NHCF-V [8]): inactive
Activity (LX-2 [9]): inactive
Activity (LX-2 [10]): inactive
Activity (HRMC [11]): inactive
Activity (NHCF-V [12]): inactive

CC1(C[S+]([O-])c2cccc(F)c2)COC1 (centres undefined)
Activity (HRMC [6]): Active

NC(=O)C[S+]([O-])c1cccc(F)c1 (centres undefined)
Activity (HRMC [1]): inactive
Activity (LX-2 [2]): inactive
Activity (HRMC [3]): inactive
Activity (NHCF-V [4]): inactive
Activity (LX-2 [5]): inactive
Activity (HRMC [6]): inactive
Activity (NHCF-V [7]): inactive
Activity (NHCF-V [8]): inactive
Activity (LX-2 [9]): inactive
Activity (LX-2 [10]): inactive
Activity (HRMC [11]): inactive
Activity (NHCF-V [12]): inactive

CC1(C[S+]([O-])Cc2ccccc2)COC1 (centres undefined)
Activity (Mus musculus [13]): Active
Activity (Mus musculus [18]): Active
Activity (HRMC [1]): inactive
Activity (HRMC [3]): inactive
Activity (Mus musculus [14]): Active
Activity (Mus musculus [15]): Active
Activity (Mus musculus [16]): Active
Activity (Mus musculus [19]): Active
Activity (Mus musculus [20]): Active
Activity (Mus musculus [17]): Active
Activity (Mus musculus [21]): Active
inhibition (INH) [22]: <30%
Activity (HRMC [6]): inactive
Activity (LX-2 [23]): Active
Activity (LX-2 [24]): Active
inhibition (INH) [25]: <30%
Activity (Mus musculus [26]): Active
Activity (Mus musculus [27]): Active
Activity (HRMC [11]): inactive
inhibition (INH) [28]: <30%

Cc1ccc(=O)n(-c2ccccc2)c1
Activity (Mus musculus [29]): Active

CCC1(C[S+]([O-])c2cccc(F)c2)COC1 (centres undefined)
Activity (NHCF-V [8]): Active
